Assay results reported in US20260240888A1, “METHODS AND PHARMACEUTICAL COMPOSITIONS FOR TREATING AGE-RELATED DISEASES” (Neurxstem, priority 2023, published 2026).
Where a name gives a salt, the structure may show the parent alone.

Legend:
PG-NNOP neural organoids = experiment: Gene expression (Ampliseq transcriptomics) in PG-NNOP neural organoids treated with drug; type: cell-based, human
Text: Furthermore, in one embodiment RNA from neural organoids for Alzheimer's disease, are converted to DNA libraries and then the representative DNA libraries are sequenced using exon-specific primers for 20,814 genes using the AmpliSeq™ technique available commercially from ThermoFisher. Reads in counts per […] (cpm)<1 are considered background noise. All cpm data are normalized data and the reads are a direct representation of the abundance of the RNA for each gene. In another informative embodiment, RNA from neural organoids for Progeroid syndromes were converted to DNA libraries and then sequenced according to this protocol.
Neural Organoids derived from induced pluripotent stem cells derived from adult skin cells of AD, ADRD, MED, or Hutchinson Gilford progeria (PG) patients were grown in vitro for […] as previous described in U.S. Pat. No. 11,435,890, incorporated by reference in its entirety herein. Transcriptomic data from these neural organoids were obtained. Differences in expression of 20,814 genes expressed in the human genome were determined between these neural organoids and those from neural organoids from a normal individual human (an individual not having/diagnosed with AD, ADRD, MED, or Progeroid syndromes). Detailed data analysis using Gene Card and Pubmed data bases were performed. […] These genes comprise a suite of biomarkers for Alzheimer's disease.
Thus, given the overlap in transcriptomic profile of AD and PG, experiments were set out to test the effect of targeting this receptor on PG-NNOP. FAAH inhibitor PF-3845, which is known to raise endogenous levels of endocannabinoid anandamide receptor agonist anandamide and increase endocannabinoid anandamide receptor activity, was tested for effects on gene expression dysregulation in PG-NNOP platform cells as set forth herein (Table 7). […] As the log 2 fold numbers reveal, the direction of the change in gene expression was completely reversed in some biomarkers by PF-3845, or the change was reduced by PF-3845. Thus, PF-3845 was capable of reverting the biomarkers of PG to normalcy.
Expression of differentially expressed genes in PG-NNOP neural organoids compared to Normal-NNOP in culture for 12 weeks is shown, as well as expression of differentially expressed genes in PG-NNOP neural organoids with PF-3845 treatment compared to PG-NNOP without drug treatment in culture for 12 weeks. […] PG-NNOP neural organoids were incubated with vehicle (0.1% DMSO; control) or PF-3845 dissolved in DMSO at 10microM for 4 days and harvested for RNA extraction and gene expression analysis by Ampliseq™ (Thermofisher). Log 2 fold change with a positive value indicates a decrease in expression of a PG-NNOP gene when compared to Normal-NNOP or a PG-NNOP gene with FAAH-I compared to PG-NNOP without the drug treatment, and with a negative number indicates an increase in gene expression.
Expression of differentially expressed genes in PG-NNOP neural organoids compared to Normal-NNOP in culture for 12 weeks and expression of differentially expressed genes in PG-NNOP neural organoids with metformin treatment compared to PG-NNOP without drug treatment in culture for 12 weeks is shown. […] PG-NNOP neural organoids were incubated with vehicle (HBBS; control) or metformin dissolved in HBBS at 0.28 mg/ml for 4 days and harvested for RNA extraction and gene expression analysis by Ampliseq™ (Thermofisher). Log 2 fold change with a positive value indicates a decrease in expression of a PG-NNOP gene when compared to Normal-NNOP or a PG-NNOP gene with Metformin compared to PG-NNOP without the drug treatment, and with a negative number indicates an increase in gene expression.
Expression of differentially expressed genes in PG-NNOP neural organoids compared to Normal-NNOP in culture for 12 weeks and expression of differentially expressed genes in PG-NNOP neural organoids with rapamycin treatment compared to PG-NNOP without drug treatment in culture for 12 weeks is shown. […]

[1] = cited from earlier work
[2] = tested on: AD-NNOP-ApoE neural organoids; experiment: Gene expression (Ampliseq transcriptomics) in AD-NNOP-ApoE neural organoids treated with CGS-21680; type: cell-based, human
Text: Reads in counts per minute (cpm)<1 are considered background noise. All cpm data are normalized data and the reads are a direct representation of the abundance of the RNA for each gene.
Expression of differentially expressed genes in PG-NNOP neural organoids compared to Normal-NNOP in culture for 12 weeks.

[3] = cited from earlier work; remark: listed apart in the source
[4] = 0.28 mg/ml, 4 days, vs PG-NNOP without drug, positive = decrease in expression
[5] = 10microM, 4 days, vs PG-NNOP without drug, positive = decrease in expression
[6] = 50 nM, 4 days, vs PG-NNOP without drug, positive = decrease in expression

Compound: CN(C)C(=N)NC(=N)N [Metformin]
- effect on dysregulated gene expression in PG-NNOP (PG-NNOP neural organoids): shifted the gene expression towards normalcy
- Log2 Fold Change of CDK1 gene expression (PG-NNOP neural organoids; [4]): 0.52
- Log2 Fold Change of CDKN1A gene expression (PG-NNOP neural organoids; [4]): −0.35
- Log2 Fold Change of DNAJC1 gene expression (PG-NNOP neural organoids; [4]): −0.26
- Log2 Fold Change of ID2 gene expression (PG-NNOP neural organoids; [4]): 0.86
- Log2 Fold Change of LMNB2 gene expression (PG-NNOP neural organoids; [4]): −0.42
- Log2 Fold Change of MT2A gene expression (PG-NNOP neural organoids; [4]): 2.06
- Log2 Fold Change of POGZ gene expression (PG-NNOP neural organoids; [4]): 0.36
- Log2 Fold Change of POLE3 gene expression (PG-NNOP neural organoids; [4]): −0.25
- Log2 Fold Change of SLC35F1 gene expression (PG-NNOP neural organoids; [4]): −0.47
- Log2 Fold Change of USP31 gene expression (PG-NNOP neural organoids; [4]): 0.67
- Log2 Fold Change of VCP gene expression (PG-NNOP neural organoids; [4]): 0.33
- Log2 Fold Change of WRN gene expression (PG-NNOP neural organoids; [4]): 0.71

Compound: CCNC(=O)[C@H]1O[C@@H](n2cnc3c(N)nc(C#CC[C@H]4CC[C@H](C(=O)OC)CC4)nc32)[C@H](O)[C@@H]1O [Apadenoson, methyl (1R,4r)-4-(3-(6-amino-9-((2R,3R,4S,5S)-5-(ethylcarbamoyl)-3,4-dihydroxytetrahydrofuran-2-yl)-9H-purin-2-yl)prop-2-yn-1-yl)cyclohexane-1-carboxylate]
- solubility in DMSO ([1]; DMSO): Soluble in DMSO

Compound: O=C(Nc1cccnc1)N1CCC(Cc2cccc(Oc3ccc(C(F)(F)F)cn3)c2)CC1 [PF-3845, N-3-Pyridinyl-4-[[3-[[5-(trifluoromethyl)-2-pyridinyl]oxy]phenyl]methyl]-1-piperidinecarboxamide]
- effect on dysregulated gene expression in PG-NNOP (PG-NNOP neural organoids): effective in correcting the gene expression that was altered in PG-NNOP
- Log2 Fold Change of CDKN1A gene expression (PG-NNOP neural organoids; [5]): 0.77
- Log2 Fold Change of EZH2 gene expression (PG-NNOP neural organoids; [5]): −0.5
- Log2 Fold Change of ID2 gene expression (PG-NNOP neural organoids; [5]): 0.35
- Log2 Fold Change of IDI1 gene expression (PG-NNOP neural organoids; [5]): 1.15
- Log2 Fold Change of LMNB2 gene expression (PG-NNOP neural organoids; [5]): −0.67
- Log2 Fold Change of MT2A gene expression (PG-NNOP neural organoids; [5]): 2.77
- Log2 Fold Change of SLC35F1 gene expression (PG-NNOP neural organoids; [5]): −0.65
- Log2 Fold Change of SLC38A1 gene expression (PG-NNOP neural organoids; [5]): −0.57
- Log2 Fold Change of USP31 gene expression (PG-NNOP neural organoids; [5]): 0.62

Compound: CCNC(=O)[C@H]1O[C@@H](n2cnc3c(N)nc(NCCc4ccc(CCC(=O)O)cc4)nc32)[C@H](O)[C@@H]1O [CGS-21680, 2-p-(2-Carboxyethyl) phenethylamino-5′-N-ethylcarboxamidoadenosine hydrochloride hydrate]
- soluble in 45% (w/v) aq 2-hydroxypropyl-β-cyclodextrin ([1]; 45% (w/v) aq 2-hydroxypropyl-β-cyclodextrin): ≤ 20 mg/mL
- soluble in DMSO ([1]; DMSO): up to 3.4 mg/mL
- effect on dysregulation of SLC7A5 and MT2A [2]: the dysregulation was corrected
- effect on gene expression dysregulated in both AD-ApoE-NNOP and PG-NNOP ([2]; 1 micromolar): significantly altered gene expression
- effect on changes in expression of SELENBP1 and RARB in AD-ApoE-NNOP ([2]; direction towards normalcy): reduced the changes in expression of both genes

Compound: COc1ccc(C2CNC(=O)C2)cc1OC1CCCC1 (stereo not drawn) [Rolipram]
- IC50 [3]: 0.8 µM

Compound: CO[C@H]1C[C@@H]2CC[C@@H](C)[C@@](O)(O2)C(=O)C(=O)N2CCCC[C@H]2C(=O)O[C@H]([C@H](C)C[C@@H]2CC[C@@H](O)[C@H](OC)C2)CC(=O)[C@H](C)/C=C(\C)[C@@H](O)[C@@H](OC)C(=O)[C@H](C)C[C@H](C)/C=C/C=C/C=C/1C [Rapamycin]
- effect on dysregulated gene expression in PG-NNOP (PG-NNOP neural organoids): shifted the gene expression towards normalcy
- Log2 Fold Change of CDKN1A gene expression (PG-NNOP neural organoids; [6]): 1.21
- Log2 Fold Change of IDI1 gene expression (PG-NNOP neural organoids; [6]): 1.48
- Log2 Fold Change of LMNB2 gene expression (PG-NNOP neural organoids; [6]): −0.96
- Log2 Fold Change of MT2A gene expression (PG-NNOP neural organoids; [6]): 3.23
- Log2 Fold Change of POLE3 gene expression (PG-NNOP neural organoids; [6]): 0.75
- Log2 Fold Change of SLC35F1 gene expression (PG-NNOP neural organoids; [6]): −0.83
- Log2 Fold Change of SLC38A1 gene expression (PG-NNOP neural organoids; [6]): −1.15
- Log2 Fold Change of USP36 gene expression (PG-NNOP neural organoids; [6]): 0.99
